Test results reported in DBAASP.
≈ marks a conversion by molar mass, not a printed value. Blank lines part the entries; values can stand above or below the molecule they belong to.

Assays:
Experiment in all cases: ≥ marks a high value that may be exact or a test limit, other limits are often not marked, values filed in µg/mL are converted to µM
[1] = test system: Bacillus subtilis IFO 3143
[2] = test system: Escherichia coli IFO 12734
[3] = test system: Pseudomonas aeruginosa IFO 12582
[4] = test system: Staphylococcus aureus IFO 12732
[5] = test system: Escherichia coli ATCC 25922
[6] = test system: Pseudomonas aeruginosa ATCC 27853
[7] = test system: Staphylococcus aureus ATCC 29313
[8] = test system: Xanthomonas axonopodis pv. citri
[9] = test system: Acinetobacter baumannii NM8
[10] = test system: Candida albicans ATCC 90028
[11] = test system: Escherichia coli ATCC 25726
[12] = test system: Klebsiella pneumoniae ATCC 700603
[13] = test system: Staphylococcus aureus ATCC 25923
[14] = test system: Staphylococcus epidermidis RP62A/1
[15] = test system: Staphylococcus epidermidis RP62A
[16] = test system: Stenotrophomonas maltophilia B32/4
[17] = test system: Bacillus subtilis IFO 3513
[18] = test system: Aspergillus flavus KCTC 1375
[19] = test system: Enterococcus faecium ATCC 19434
Enterococcus faecium = test system: Enterococcus faecium
[20] = test system: Escherichia coli O157:H7 ATCC 43895
Escherichia coli = test system: Escherichia coli
[21] = test system: Malassezia furfur KCTC 7744
Pseudomonas aeruginosa = test system: Pseudomonas aeruginosa
Staphylococcus aureus = test system: Staphylococcus aureus
[22] = test system: Aspergillus flavus KCTC 7375
[23] = test system: Bacillus megaterium KCTC 1096
[24] = test system: Bacillus subtilis KCTC 1918
[25] = test system: Candida albicans KCTC 7121
[26] = test system: Escherichia coli KCTC 1682
[27] = test system: Fusarium oxysporum KCTC 6084
Proteus vulgaris = test system: Proteus vulgaris
[28] = test system: Pseudomonas aeruginosa KCTC 1637
[29] = test system: Staphylococcus aureus KCTC 1621
[30] = test system: Trichosporon beigelii KCTC 7251
Aspergillus fumigatus = test system: Aspergillus fumigatus
[31] = test system: Staphylococcus aureus ATCC 49230
[32] = test system: Staphylococcus epidermidis ATCC 35984
Escherichia coli OP50 = test system: Escherichia coli OP50

MIC [1]: 2.92 µM (≈ 8 µg/mL)
MIC [2]: 5.84 µM (≈ 16 µg/mL)
MIC [3]: 23.4 µM (≈ 64 µg/mL)
MIC [4]: 2.92 µM (≈ 8 µg/mL)
Compound: CC(C)C[C@H](NC(=O)[C@H](Cc1ccc(O)cc1)NC(=O)[C@H](Cc1cnc[nH]1)NC(=O)[C@@H](NC(=O)[C@H](CC(C)C)NC(=O)[C@H](C)NC(=O)[C@H](C)NC(=O)[C@H](CCCCN)NC(=O)CNC(=O)[C@@H](NC(=O)[C@H](Cc1cnc[nH]1)NC(=O)[C@H](CCCCN)NC(=O)CNC(=O)[C@@H](NC(=O)[C@H](Cc1cnc[nH]1)NC(=O)[C@H](C)NC(=O)[C@H](C)NC(=O)[C@H](CCCCN)NC(=O)[C@H](CCCCN)NC(=O)[C@H](Cc1ccccc1)NC(=O)[C@H](Cc1ccccc1)NC(=O)[C@H](CO)NC(=O)[C@H](C)NC(=O)[C@H](Cc1c[nH]c2ccccc12)NC(=O)[C@H](C)N)C(C)C)C(C)C)[C@@H](C)O)C(=O)O [AWASFFKKAAHVGKHVGKAALTHYL]

MIC [5]: 85 µM (≈ 129 µg/mL)
MIC [6]: 170 µM (≈ 257 µg/mL)
MIC [8]: 5 µM (≈ 7.57 µg/mL)
Compound: CC(C)C[C@H](NC(=O)[C@H](CO)NC(=O)[C@H](CCCCN)NC(=O)[C@H](CC(C)C)NC(=O)[C@H](CCCCN)NC(=O)[C@H](CC(=O)O)NC(=O)[C@H](CC(C)C)NC(=O)[C@H](Cc1c[nH]c2ccccc12)NC(=O)[C@H](C)N)C(=O)NCC(=O)N[C@@H](CCCCN)C(=O)N[C@H](C(=O)N[C@H](C(=O)NCC(=O)O)C(C)C)C(C)C [AWLDKLKSLGKVVG]
MIC [7]: ≥ 170 µM

MIC [9]: 4 µM (≈ 6.78 µg/mL)
MIC [10]: 8 µM (≈ 13.6 µg/mL)
MIC [11]: 16 µM (≈ 27.1 µg/mL)
MIC [12]: 16 µM (≈ 27.1 µg/mL)
MIC [6]: 8 µM (≈ 13.6 µg/mL)
MIC [13]: 4 µM (≈ 6.78 µg/mL)
MIC [14]: 2 µM (≈ 3.39 µg/mL)
MIC [15]: 2 µM (≈ 3.39 µg/mL)
MIC [16]: 4 µM (≈ 6.78 µg/mL)
Compound: CC[C@H](C)[C@H](N)C(=O)N[C@@H](CC(C)C)C(=O)NCC(=O)N[C@@H](CCCCN)C(=O)N[C@@H](CC(C)C)C(=O)N[C@@H](CC(C)C)C(=O)N[C@@H](CCCCN)C(=O)N[C@H](C(=O)N[C@@H](C)C(=O)N[C@@H](C)C(=O)N[C@@H](CCCCN)C(=O)N[C@@H](CC(C)C)C(=O)N[C@@H](CC(C)C)C(=O)N[C@@H](CO)C(=O)N[C@@H](CC(N)=O)C(=O)N[C@@H](CC(C)C)C(N)=O)[C@@H](C)O [ILGKLLKTAAKLLSNL]

MIC [17]: 0.851 µM (≈ 1.56 µg/mL)
MIC [2]: 6.81 µM (≈ 12.5 µg/mL)
MIC [4]: 0.851 µM (≈ 1.56 µg/mL)
Compound: CC[C@H](C)[C@H](N)C(=O)N[C@@H](CC(C)C)C(=O)N1CCC[C@H]1C(=O)N[C@@H](Cc1c[nH]c2ccccc12)C(=O)N[C@@H](CCCCN)C(=O)N[C@@H](Cc1c[nH]c2ccccc12)C(=O)N1CCC[C@H]1C(=O)N[C@@H](Cc1c[nH]c2ccccc12)C(=O)N[C@@H](CC(C)C)C(=O)N1CCC[C@H]1C(=O)N[C@@H](Cc1c[nH]c2ccccc12)C(=O)N[C@@H](CCCN=C(N)N)C(=O)N[C@@H](CCCN=C(N)N)C(N)=O [ILPWKWPWLPWRR]

MIC [18]: ≥ 40 µM
MIC [10]: ≥ 40 µM
MIC [19]: ≥ 40 µM
MIC (Enterococcus faecium): ≥ 40 µM
MIC [20]: 28.3 µM (≈ 57.4 µg/mL)
MIC (Escherichia coli): 28.3 µM (≈ 57.4 µg/mL)
MIC [21]: ≥ 56.6 µM
MIC [6]: 40 µM (≈ 81.1 µg/mL)
MIC (Pseudomonas aeruginosa): 40 µM (≈ 81.1 µg/mL)
MIC [13]: 28.3 µM (≈ 57.4 µg/mL)
MIC (Staphylococcus aureus): 28.3 µM (≈ 57.4 µg/mL)
Compound: CC(C)C[C@H](NC(=O)[C@H](Cc1ccc(O)cc1)NC(=O)[C@H](Cc1cnc[nH]1)NC(=O)[C@@H](NC(=O)[C@H](CC(C)C)NC(=O)[C@H](C)NC(=O)[C@H](C)NC(=O)[C@H](CCCCN)NC(=O)CNC(=O)[C@@H](NC(=O)[C@H](Cc1cnc[nH]1)NC(=O)[C@H](CCCCN)NC(=O)CNC(=O)[C@@H](NC(=O)[C@H](Cc1cnc[nH]1)NC(=O)[C@H](C)NC(=O)[C@H](C)NC(=O)[C@H](CCCCN)NC(=O)[C@@H](N)CCCCN)C(C)C)C(C)C)[C@@H](C)O)C(N)=O [KKAAHVGKHVGKAALTHYL]

MIC [22]: 25 µM (≈ 57.9 µg/mL)
MIC [23]: 1.56 µM (≈ 3.61 µg/mL)
MIC [24]: 1.56 µM (≈ 3.61 µg/mL)
MIC [25]: 25 µM (≈ 57.9 µg/mL)
MIC [26]: 12.5 µM (≈ 29 µg/mL)
MIC [27]: ≥ 50 µM
MIC (Proteus vulgaris): 6.25 µM (≈ 14.5 µg/mL)
MIC [28]: 3.12 µM (≈ 7.24 µg/mL)
MIC [29]: 3.12 µM (≈ 7.24 µg/mL)
MIC [30]: 12.5 µM (≈ 29 µg/mL)
Compound: CC[C@H](C)[C@H](NC(=O)[C@H](CCCCN)NC(=O)[C@H](CCCCN)NC(=O)[C@H](Cc1ccccc1)NC(=O)[C@H](CC(C)C)NC(=O)[C@H](CCCCN)NC(=O)[C@H](Cc1c[nH]c2ccccc12)NC(=O)[C@@H](N)CCCCN)C(=O)N[C@@H](CC(C)C)C(=O)N[C@@H](CCCCN)C(=O)N[C@@H](Cc1ccccc1)C(=O)N[C@@H](CC(C)C)C(=O)N[C@@H](Cc1cnc[nH]1)C(=O)N[C@@H](CC(C)C)C(=O)N[C@@H](C)C(=O)N[C@@H](CCCCN)C(=O)N[C@@H](CCCCN)C(=O)N[C@@H](Cc1ccccc1)C(N)=O [KWKLFKKILKFLHLAKKF]

MIC (Aspergillus fumigatus): 3.6 µM (≈ 6.65 µg/mL)
MIC [5]: 8.66 µM (≈ 16 µg/mL)
MIC [6]: 2.17 µM (≈ 4 µg/mL)
MIC [31]: 2.17 µM (≈ 4 µg/mL)
MIC [32]: 1.08 µM (≈ 2 µg/mL)
Compound: CC(C)C[C@H](NC(=O)[C@H](CC(C)C)NC(=O)[C@H](Cc1ccccc1)NC(=O)[C@H](CC(C)C)NC(=O)[C@H](CC(C)C)NC(=O)[C@@H](N)CC(C)C)C(=O)N[C@@H](CCCCN)C(=O)N[C@@H](CCCCN)C(=O)N[C@@H](CCCN=C(N)N)C(=O)N[C@@H](CCCCN)C(=O)N[C@@H](CCCCN)C(=O)N[C@@H](CCCN=C(N)N)C(=O)N[C@@H](CCCCN)C(=O)N[C@@H](Cc1ccc(O)cc1)C(=O)O [LLLFLLKKRKKRKY]

MIC (Escherichia coli OP50): 30 µM (≈ 138 µg/mL)
MIC (Staphylococcus aureus): 7.5 µM (≈ 34.6 µg/mL)
Compound: CC(C)[C@@H]1NC(=O)[C@@H]2CSSC[C@@H]3NC(=O)[C@H](CCCCN)NC(=O)CNC(=O)[C@H](CCC(=O)O)NC(=O)[C@H](CC(=O)O)NC(=O)[C@H]([C@@H](C)O)NC(=O)[C@@H]4CCCN4C(=O)[C@@H](NC(=O)CNC(=O)[C@H](Cc4ccc(O)cc4)NC(=O)[C@@H]4CCCN4C(=O)[C@H](CC(N)=O)NC(=O)[C@H](CCC(=O)O)NC(=O)[C@@H](N)Cc4ccc(O)cc4)CSSC[C@H](NC(=O)[C@H](Cc4ccc(O)cc4)NC(=O)CNC(=O)CNC(=O)[C@H](CCC(=O)O)NC(=O)[C@H](Cc4ccccc4)NC(=O)[C@H](CCC(=O)O)NC(=O)[C@H](CO)NC(=O)[C@H](CC(=O)O)NC(=O)[C@H](CC(N)=O)NC(=O)[C@H](CSSC[C@@H](C(=O)N[C@@H](Cc4ccc(O)cc4)C(=O)N[C@@H](CCCN=C(N)N)C(=O)N[C@H](C(=O)O)[C@@H](C)O)NC1=O)NC(=O)[C@H](CCCN=C(N)N)NC(=O)[C@H](CC(=O)O)NC(=O)[C@H](Cc1ccccc1)NC3=O)C(=O)NCC(=O)NCC(=O)N[C@@H](CO)C(=O)N[C@@H](Cc1ccc(O)cc1)C(=O)N[C@@H](CCCN=C(N)N)C(=O)N[C@@H](C)C(=O)N[C@@H]([C@@H](C)O)C(=O)N2 [YENPYGCPTDEGKCFDRCNDSEFEGGYCGGSYRATCVCYRT]
